Our source for the GI50 and TGI values is PubChem BioAssay (NCI).

Test systems include CCRF-CEM leukemia; DU-145 prostate; HS 578T breast; HT29 colon; K-562 leukemia; MCF7 breast; NCI-H23 lung; NCI-H522 lung; SF-295 CNS; SW-620 colon.
Common to all, as to assay: NCI-60 cell line screen, 48 h

“And” between values parts separate entries of the source, which are not always exact repeats. Equal values may be shown once.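 In this assay, cells in 96-well plates receive the compound at five concentrations for 48 hours. Endpoints are linearly interpolated between the surrounding concentrations. Here, GI50 denotes the concentration required for 50% inhibition of growth. TGI is the concentration that stops growth completely.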

For `COc1ccc2c(c1)[n+](=O)c(/C=C/C(=O)c1cc(OC)c(OC)c(OC)c1)c(C)n2[O-]`, the GI50 in the test on CCRF-CEM leukemia is 1.87 µM; in the test on DU-145 prostate, 2.1 µM; in the test with HS 578T breast, 4.72 µM; with HT29 colon it was 4.35 µM; in the test with K-562 leukemia, 2.59 µM; with MCF7 breast, 3.14 µM. In addition, the GI50 was 13.7 µM in the test on NCI-H23 lung, 1.32 µM with NCI-H522 lung, 44.8 µM in the test with SF-295 CNS and 4.03 µM with SW-620 colon. For the same compound, the TGI in the test on CCRF-CEM leukemia was 8.08 µM; in the test on DU-145 prostate, 13.4 µM; in the test on HS 578T breast, 46.6 µM; in the test with HT29 colon, 50.9 µM; with K-562 leukemia, above 100 µM; with MCF7 breast, above 100 µM. Moreover, the TGI in the test on NCI-H23 lung is 34 µM; in the test with NCI-H522 lung, 3.45 µM; in the test on SF-295 CNS, above 100 µM; in the test with SW-620 colon, 47.6 µM.
As for `CN(Cc1cnc2nc(N)nc(N)c2n1)c1c(Cl)cc(C(=O)NC(CCC(=O)O)C(=O)O)cc1Cl` (configuration not stated), the GI50 in the test with CCRF-CEM leukemia was below 0.01 µM; with DU-145 prostate, below 0.01 µM; in the test on HS 578T breast it was 8.12 µM; with HT29 colon, below 0.01 µM; in the test with K-562 leukemia it was below 0.01 µM; in the test on MCF7 breast, below 0.01 µM. Also, the GI50 in the test with NCI-H23 lung is 0.0277 µM; with NCI-H522 lung, 0.0457 µM; in the test with SF-295 CNS, 0.0156 µM; in the test on SW-620 colon, below 0.01 µM. The TGI with CCRF-CEM leukemia, with DU-145 prostate, with HS 578T breast, in the test on HT29 colon, in the test with K-562 leukemia and in the test on MCF7 breast was above 100 µM in each case. For the same compound, the TGI with NCI-H23 lung, in the test on NCI-H522 lung and with SW-620 colon was above 100 µM in each case.
Regarding `COC1CCC(OC)C(c2nc3sccn3c2/C=N/N=C(N)N)C1` (configuration not stated), the GI50 in the test with CCRF-CEM leukemia was 24.8 µM; in the test with DU-145 prostate, 45.1 µM; in the test with HS 578T breast, 24.6 µM; with HT29 colon, 2.59 µM; in the test on K-562 leukemia it was 35.4 µM; with MCF7 breast it was 20.1 µM. In addition, the GI50 in the test on NCI-H23 lung was 3.69 µM; in the test on NCI-H522 lung, 30.4 µM; in the test on SF-295 CNS, 16.5 µM; in the test with SW-620 colon, 19.4 µM. In addition, the TGI was above 64.7 µM in the test with CCRF-CEM leukemia; above 80.2 µM in the test on DU-145 prostate; 68.6 µM in the test on HS 578T breast; above 8.71 µM with HT29 colon; above 63.3 µM in the test with K-562 leukemia; 45 µM in the test on MCF7 breast. For the same compound, the TGI is above 35.5 µM in the test on NCI-H23 lung, above 72.2 µM in the test with NCI-H522 lung, 34.1 µM with SF-295 CNS and 53.1 µM in the test on SW-620 colon.
For `CC(C)C(Br)C(=O)NCC(=O)O` (configuration not stated), the TGI in the test with CCRF-CEM leukemia, in the test with DU-145 prostate, in the test with HS 578T breast, in the test with HT29 colon, with K-562 leukemia and with MCF7 breast was above 100 µM each time. Further, the TGI with NCI-H23 lung, in the test with NCI-H522 lung, with SF-295 CNS and in the test with SW-620 colon was above 100 µM each time.
Take `CCOc1ccc2cc(-c3nn(CC4CCN(C)CC4)c4ncnc(N)c34)ccc2c1`: the GI50 with CCRF-CEM leukemia is 16.8 µM; with DU-145 prostate, 28.4 µM; in the test with HS 578T breast, 11.1 µM; with HT29 colon, 7.01 µM; in the test on K-562 leukemia it was 11.6 µM; with MCF7 breast, 13.4 µM. Besides, the GI50 is 15.1 µM with NCI-H23 lung, 16.6 µM in the test on NCI-H522 lung, 14.5 µM in the test with SF-295 CNS and 15.7 µM in the test on SW-620 colon. Further, the TGI was 55.2 µM in the test on CCRF-CEM leukemia; above 100 µM with DU-145 prostate; 33.7 µM with HS 578T breast; 27.3 µM in the test with HT29 colon; 27.7 µM in the test on K-562 leukemia; 37.1 µM in the test with MCF7 breast. The TGI with NCI-H23 lung is 41.6 µM; with NCI-H522 lung, 33.5 µM; with SF-295 CNS, 29.2 µM; in the test on SW-620 colon, 31.7 µM.
As for `CCCC(=O)Nc1cc(/C=C/C(=O)N2C[C@@H]3C[C@]34C2=CC(=O)c2[nH]cc(C)c24)n(C)c1`, the TGI in the test on CCRF-CEM leukemia is 0.131 µM and 0.267 µM; in the test with HS 578T breast, 1.96 µM and 0.55 µM; in the test with HT29 colon it was 2.77 µM; in the test on K-562 leukemia it was 25 µM; with NCI-H23 lung it was 0.645 µM and 0.0939 µM; with NCI-H522 lung, 0.219 µM and 0.141 µM. The TGI with SF-295 CNS and with SW-620 colon was 25 µM throughout. In addition, the GI50 is 0.0252 µM in the test with DU-145 prostate; 0.143 µM in the test on HS 578T breast; 0.0208 µM in the test with MCF7 breast; 0.0119 µM in the test with NCI-H23 lung; 0.0287 µM in the test on NCI-H522 lung.
For `OC[C@H]1N[C@H](CO)[C@@H](O)[C@H]1O`, the TGI in the test on CCRF-CEM leukemia, in the test on DU-145 prostate, in the test on HS 578T breast, in the test with HT29 colon, with K-562 leukemia and with MCF7 breast was above 100 µM throughout. Moreover, the TGI with NCI-H23 lung, with NCI-H522 lung, with SF-295 CNS and with SW-620 colon was above 100 µM in each case.
For `OC(Cc1cccc2ccccc12)CN1CCC(c2ccccc2)CC1` (configuration not stated), the TGI was found to be 62.6 µM in the test with CCRF-CEM leukemia; 31.9 µM in the test with DU-145 prostate; 32.4 µM in the test on HS 578T breast; 25.8 µM in the test with HT29 colon; 38.1 µM in the test on K-562 leukemia; 32.7 µM in the test on MCF7 breast. Moreover, the TGI with NCI-H23 lung came to 30.8 µM; with NCI-H522 lung, 21.9 µM; in the test on SF-295 CNS, 27.9 µM; in the test with SW-620 colon, 29.9 µM.
As to `Cn1cc(-c2csc(-c3ccc(Cl)cc3)n2)c2cccnc21`, the GI50 in the test on CCRF-CEM leukemia is 18.4 µM; with DU-145 prostate, 15.3 µM; in the test on HS 578T breast, 12 µM; in the test with HT29 colon, 13.2 µM; with K-562 leukemia, 12.9 µM; in the test on MCF7 breast, 11.9 µM. Besides, the GI50 in the test on NCI-H23 lung is 13.7 µM; with NCI-H522 lung, 13.6 µM; in the test with SF-295 CNS, 15.5 µM; in the test with SW-620 colon, 15 µM. The TGI in the test with CCRF-CEM leukemia was determined as 51.9 µM; in the test with DU-145 prostate, 28.9 µM; with HS 578T breast, 34.4 µM; in the test with HT29 colon, 25.9 µM; in the test on K-562 leukemia, 38.3 µM; with MCF7 breast it was 29.8 µM. Besides, the TGI was 31 µM in the test on NCI-H23 lung, 38.2 µM in the test on NCI-H522 lung, 34.4 µM in the test on SF-295 CNS and 29.3 µM with SW-620 colon.
For `COc1ccc(CN2c3ccccc3Sc3ccccc32)cc1O`, the GI50 was 0.411 µM in the test with CCRF-CEM leukemia; 0.374 µM in the test with DU-145 prostate; 0.933 µM in the test on HS 578T breast; 0.724 µM in the test on HT29 colon; 0.365 µM in the test with K-562 leukemia; 0.355 µM with MCF7 breast. In addition, the GI50 is 0.364 µM with NCI-H23 lung, 0.241 µM in the test on NCI-H522 lung, 0.225 µM in the test with SF-295 CNS and 0.504 µM in the test on SW-620 colon. The TGI turned out to be 22.4 µM in the test with CCRF-CEM leukemia; 15 µM with DU-145 prostate; 46 µM in the test with HS 578T breast; 6.4 µM in the test on HT29 colon; 26.6 µM in the test on K-562 leukemia; 13.4 µM in the test with MCF7 breast. Also, the TGI in the test on NCI-H23 lung came to 13.2 µM; with NCI-H522 lung, 0.781 µM; in the test with SF-295 CNS, 0.646 µM; in the test on SW-620 colon, 17.7 µM.
In the case of `O=C(O)CCN1C(=S)CSC1=S`, the TGI in the test on CCRF-CEM leukemia, in the test on DU-145 prostate, with HS 578T breast, in the test on HT29 colon, with K-562 leukemia and with MCF7 breast was above 100 µM each time. Moreover, the TGI in the test on NCI-H23 lung, in the test with NCI-H522 lung, in the test on SF-295 CNS and in the test with SW-620 colon was above 100 µM throughout.
Consider `COc1c(OC2OC(C)C(O)C(O)C2O)c(OC)c2oc(-c3ccc(O)cc3)cc(=O)c2c1O` (configuration not stated), for which the GI50 is 31.4 µM with CCRF-CEM leukemia; 24.1 µM in the test on DU-145 prostate; 29.8 µM in the test with HS 578T breast; 30 µM in the test on HT29 colon; 26.2 µM in the test on K-562 leukemia; 34.4 µM with MCF7 breast. Also, the GI50 in the test on NCI-H23 lung is 20.6 µM; in the test on NCI-H522 lung, 24.2 µM; in the test on SF-295 CNS, 36.4 µM; in the test on SW-620 colon it was 35.7 µM. In addition, the TGI with CCRF-CEM leukemia is above 100 µM; with DU-145 prostate it was 52.8 µM; in the test on HS 578T breast it was above 100 µM; in the test on HT29 colon, above 100 µM; in the test on K-562 leukemia, above 100 µM; in the test on MCF7 breast, above 100 µM. Also, the TGI in the test on NCI-H23 lung is 57.1 µM; in the test with NCI-H522 lung it was 64.5 µM; in the test with SF-295 CNS it was above 100 µM; in the test with SW-620 colon, above 100 µM.
`O=C1C=C(NCCc2ccccc2)c2ccccc2C1=O`: the TGI stood at 67.9 µM in the test with CCRF-CEM leukemia; 3.13 µM with DU-145 prostate; 5.09 µM in the test with HS 578T breast; 7.27 µM with HT29 colon; 20.4 µM with K-562 leukemia; 3.34 µM with MCF7 breast. The TGI in the test with NCI-H23 lung was determined as 5.67 µM; with NCI-H522 lung, 4.41 µM; in the test on SF-295 CNS, 4.76 µM; with SW-620 colon it was 4.31 µM.
